# Key:
# [1] = person, 4 grams/day; cited from earlier work
# [2] = Mucomyst monograph; cited from earlier work
# [3] = rat, oral
# Description: The effect of prophylactic administration of n-acetylcysteine (NAC) on acetaminophen hepatotoxicity can be determined in the rat. In a double-blind placebo study, four groups of rats are given one of the following oral dosings: “NAC-free” (NF), low NAC (LN), medium NAC (MN), or high NAC(HN). Then rats in all groups are administered a toxic dose of acetaminophen (1 g/kg body weight) orally. After 24 hours, animal are euthanized and assessed for hepatotoxicity by the elevation of serum transaminases and by a necrotic score based on histological examination.
# In the following protocol, all rats in the study are given the LD50 dose of acetaminophen (determined by the dosage of acetaminophen that causes 50% of the test subjects to expire after a predetermined period of time). […] The study is conducted in double-blind fashion; four groups of rats are given one of the following oral dosings: “NAC-free” (NF or placebo), low NAC (LN), medium NAC (MN), or high NAC(HN). Then rats in all groups are administered a LD50 dose of acetaminophen. All animals are euthanized 3 weeks later and hepatotoxicity assessed by the elevation of serum transaminases and by a necrotic score based on histological examination. Mortality in all groups will also be followed as the added criterion.
# [4] = male, human, in vivo
# From the text: A construction worker* fell from a height of about 8 feet, severely breaking their right ankle and wrist. (*to promote privacy and simplify description of the invention, the patient and symptoms described here are a composite of data from typical patients). Orthopedic surgery repaired the injury, followed by prolonged and painful rehabilitation. A prescription for 60 Vicodin tablets (a composition comprising acetaminophen and hydrocodone) is given routinely during such post-surgical recovery periods. Typcially, the first day 4 to 8 vicodin tablets manage pain (often in combination with sedatives and the aftereffects of surgical anesthetics).
# On the second day, at least 8 Vicodin® tablets are generally required to get the same analgesic effect (Vicodin is a well known trademark, which will also be referred to herein by “vicodin”). Subsequently, it is common that more than 10 vicodin tablets per day are taken, contrary to the doctor's instructions, yet less pain relief is noted with this higher dosage. At this rate, the patient must seek a refill in only a week; often doctors refilling such prescriptions give a stern advisory about taking too many pills and the dangers of Tylenol/acetaminophen. Subsequently, the patient sought prescriptions from other physicians and took 30 Vicodin tablets each day. […]
# [5] = rats, oral methionine 200 mg/kg/day for 14 days; cited from earlier work
SMILES,hepatotoxicity at recommended dose [1],"large overdose that saturates glucuronide and sulfate conjugation pathways, leading to hepatic cellular necrosis [2]",LD50 dose of acetaminophen [3],destruction of liver [4],angiotoxic effects [5],concentrations of homocysteine in serum [5]
"CC(=O)Nc1ccc(O)cc1 [acetaminophen, N-acetyl-p-aminophenol]",severe hepatotoxicity,≥ 150 mg·kg,0.5 g/kg of Body weight,over 90%,,
CSCC[C@H](N)C(=O)O [methionine],,,,,angiotoxic effects similar to atherosclerosis,increased
